Measurements: patent US20230339866A1, “Quinazoline compounds and the use thereof in the treatment of cancer” (TROBIO THERAPEUTICS PTY LTD, priority 2020, published 2023)

Tests used:
Format in all cases: cell-based
[1] = test system: A2780 (ovarian); assay: Anti-proliferative activity (Cell-Titre luminescence) against A2780 ovarian cancer cells; conditions: 72 h exposure, Cell-Titre luminescent reagent
Summary of the method: (§1)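 Cells grown 24 h at 37 °C, 5% CO2, then exposed 72 h to compound at 30, 10, 3, 1, 0.3 and 0.1 μM. Viability by Cell-Titre luminescence (30 min), normalised to vehicle; EC50 from variable-slope sigmoidal nonlinear regression.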

[2] = test system: A549 (NSCLC); assay: Anti-proliferative activity (Cell-Titre luminescence) against A549 non-small cell lung cancer cells; conditions: 72 h exposure, Cell-Titre luminescent reagent
Summary of the method: as §1

[3] = test system: SK-N-SH neuroblastoma cells; assay: Anti-proliferative activity (MTS assay) against SK-N-SH neuroblastoma cells
Method: The ability of compounds of the disclosure to inhibit the proliferation of SK-N-SH neuroblastoma cells was also assessed. […] Cell viability was normalised to control (vehicle alone) and dose response curves and IC50 values (Table 4) were determined using Graph Pad Prism 6.

Row | Compound | IC50 ([1]; Homo sapiens, A2780, 72 h) [µM] | IC50 ([2]; Homo sapiens, A549, 72 h) [µM] | IC50 ([3]; Homo sapiens, SK-N-SH, 72 h) [µM] | IC50 [1] [µM] | IC50 [2] [µM] | IC50 ([3]; 72 hours) [µM]
1 | CN(C)CCCNc1nc(NCCc2cccc(C(F)(F)F)c2)nc2ccccc12 [Compound 74, N^4-(3-(dimethylamino)propyl)-N^2-(3-(trifluoromethyl)phenethyl)quinazoline-2,4-diamine] | 1.16 | 1.7 | 1.24 | – | – | –
2 | FC(F)(F)c1cccc(CCNc2nc(NCCN3CCNCC3)c3ccccc3n2)c1 [Compound 112, N^4-(2-(piperazin-1-yl)ethyl)-N^2-(3-(trifluoromethyl)phenethyl)quinazoline-2,4-diamine] | 0.767 | 0.938 | 0.46 | – | – | –
3 | COc1ccc(CCNc2nc(NCCCN(C)C)c3ccccc3n2)cc1 [Compound 75, N^4-(3-(dimethylamino)propyl)-N^2-(4-methoxyphenethyl)quinazoline-2,4-diamine] | 0.467 | 1.49 | 1.47 | – | – | –
4 | CN1CCN(CCNc2nc(NCCc3ccc(C(C)(C)C)cc3)nc3ccccc23)CC1 [Compound 129, N^2-(4-(tert-butyl)phenethyl)-N^4-(2-(4-methylpiperazin-1-yl)ethyl)quinazoline-2,4-diamine] | 0.316 | 1 | 0.42 | – | – | –
5 | CC(C)c1ccc(CCNc2nc(NCCN3CCN(C)CC3)c3ccccc3n2)cc1 [Compound 128, N^2-(4-isopropylphenethyl)-N^4-(2-(4-methylpiperazin-1-yl)ethyl)quinazoline-2,4-diamine] | 0.606 | 0.943 | 0.57 | – | – | –
6 | Fc1ccc(CCNc2nc(NCCc3c[nH]cn3)c3ccccc3n2)cc1 [Compound 88, N^4-(2-(1H-imidazol-4-yl)ethyl)-N^2-(4-fluorophenethyl)quinazoline-2,4-diamine] | 1.74 | 3.42 | 2.2 | – | – | –
7 | CN1CCN(CCNc2nc(Nc3cccc(F)c3)nc3ccccc23)CC1 [Compound 56, N^2-(3-fluorophenyl)-N^4-(2-(4-methylpiperazin-1-yl)ethyl)quinazoline-2,4-diamine] | 1.01 | 8.5 | 3.68 | – | – | –
8 | CCc1ccc(CCNc2nc(NCCCO)c3ccccc3n2)cc1 [Compound 93, 3-((2-((4-ethylphenethyl)amino)quinazolin-4-yl)amino)propan-1-ol] | 2.65 | 10.1 | 4.43 | – | – | –
9 | OCCCNc1nc(NCCc2ccc(F)cc2)nc2ccccc12 [Compound 95, 3-((2-((4-fluorophenethyl)amino)quinazolin-4-yl)amino)propan-1-ol] | 2.78 | 1.76 | 2.62 | – | – | –
10 | Cc1cccc(CCNc2nc(NCCN3CCN(C)CC3)c3ccccc3n2)c1 [Compound 124, N^2-(3-methylphenethyl)-N^4-(2-(4-methylpiperazin-1-yl)ethyl)quinazoline-2,4-diamine] | 2.74 | 2.25 | 0.68 | – | – | –
11 | CCc1ccc(CCNc2nc(NCCc3c[nH]cn3)c3ccccc3n2)cc1 [Compound 86, N^4-(2-(1H-imidazol-4-yl)ethyl)-N^2-(4-ethylphenethyl)quinazoline-2,4-diamine] | 1.07 | 3.23 | 2.17 | – | – | –
12 | CC(C)C(CNc1nc(-c2cc[nH]c2)nc2ccccc12)N1CCN(C)CC1 (stereo not shown) [Compound 5, N-(3-methyl-2-(4-methylpiperazin-1-yl)butyl)-2-(1H-pyrrol-3-yl)quinazolin-4-amine] | 0.901 | 2.74 | 1.87 | – | – | –
13 | Fc1cccc(Nc2nc(NCCc3c[nH]cn3)c3ccccc3n2)c1 [Compound 82, N^4-(2-(1H-imidazol-4-yl)ethyl)-N^2-(3-fluorophenyl)quinazoline-2,4-diamine] | 1.88 | 7.46 | 4.46 | – | – | –
14 | N^4-(2-(dimethylamino)ethyl)-N^2-(3-(trifluoromethyl)phenethyl)quinazoline-2,4-diamine [Compound 64] | – | – | – | 2.38 | 2.87 | 1.45
15 | CN(C)CCNc1nc(-c2cc[nH]c2)nc2ccccc12 [Compound 98, N^1-(2-(1H-pyrrol-3-yl)quinazolin-4-yl)-N^2,N^2-dimethylethane-1,2-diamine] | 1.03 | 5.21 | 3.93 | – | – | –
16 | CN1CCN(CCNc2nc(NCCc3cccc(C(F)(F)F)c3)nc3ccccc23)CC1 [Compound 51, N^4-(2-(4-methylpiperazin-1-yl)ethyl)-N^2-(3-(trifluoromethyl)phenethyl)quinazoline-2,4-diamine] | 1.39 | 3.07 | 1.4 | – | – | –
17 | CCc1ccc(Nc2nc(NCCc3c[nH]cn3)c3ccccc3n2)cc1 [Compound 81, N^4-(2-(1H-imidazol-4-yl)ethyl)-N^2-(4-ethylphenyl)quinazoline-2,4-diamine] | 1.2 | 3.1 | 3.82 | – | – | –
18 | CN1CCN(CCNc2nc(Nc3cccc(C(F)(F)F)c3)nc3ccccc23)CC1 [Compound 41, N^4-(2-(4-methylpiperazin-1-yl)ethyl)-N^2-(3-(trifluoromethyl)phenyl)quinazoline-2,4-diamine] | 0.855 | 3.06 | 2.22 | – | – | –

Row | Compound | IC50 ([1]; Homo sapiens, A2780, 72 h) [µM] | IC50 ([2]; Homo sapiens, A549, 72 h) [µM] | IC50 ([3]; Homo sapiens, SK-N-SH, 72 h) [µM] | IC50 [1] [µM] | IC50 [2] [µM] | IC50 ([3]; 72 hours) [µM]
19 | CN1CCN(CCNc2nc(NCCc3cccc(Cl)c3)nc3ccccc23)CC1 [Compound 125, N^2-(3-chlorophenethyl)-N^4-(2-(4-methylpiperazin-1-yl)ethyl)quinazoline-2,4-diamine] | 0.968 | 1.62 | 0.73 | – | – | –
20 | CN(C)CCNc1nc(-c2ccc[nH]2)nc2ccccc12 [Compound 97, N^1-(2-(1H-pyrrol-2-yl)quinazolin-4-yl)-N^2,N^2-dimethylethane-1,2-diamine] | 3.07 | 4.99 | 8.54 | – | – | –
21 | OCCNc1nc(NCc2ccccc2)nc2ccccc12 [Compound 31, 2-((2-(benzylamino)quinazolin-4-yl)amino)ethan-1-ol] | 1.21 | 3.61 | 14.3 | – | – | –
22 | CCc1ccc(Nc2nc(NCCCN(C)C)c3ccccc3n2)cc1 [Compound 71, N^4-(3-(dimethylamino)propyl)-N^2-(4-ethylphenyl)quinazoline-2,4-diamine] | 2.88 | 7.14 | 2.07 | – | – | –
23 | COc1ccc(CCNc2nc(NCCc3c[nH]cn3)c3ccccc3n2)cc1 [Compound 85, N^4-(2-(1H-imidazol-4-yl)ethyl)-N^2-(4-methoxyphenethyl)quinazoline-2,4-diamine] | 1.74 | 6.81 | 4.28 | – | – | –
24 | CN(C)CCCNc1nc(NCCc2ccc(F)cc2)nc2ccccc12 [Compound 78, N^4-(3-(dimethylamino)propyl)-N^2-(4-fluorophenethyl)quinazoline-2,4-diamine] | 2.95 | 2.33 | 1.86 | – | – | –
25 | CN(C)CCNc1nc(Nc2cccc(C(F)(F)F)c2)nc2ccccc12 [Compound 60, N^4-(2-(dimethylamino)ethyl)-N^2-(3-(trifluoromethyl)phenyl)quinazoline-2,4-diamine] | 2.21 | 2.74 | 2.61 | – | – | –
26 | CN(C)CCCNc1nc(NCCc2cccc(F)c2)nc2ccccc12 [Compound 77, N^4-(3-(dimethylamino)propyl)-N^2-(3-fluorophenethyl)quinazoline-2,4-diamine] | 3.49 | 3.04 | 2.36 | – | – | –
27 | COc1ccc(CCNc2nc(NCCN3CCN(C)CC3)c3ccccc3n2)cc1 [Compound 54, N^2-(4-methoxyphenethyl)-N^4-(2-(4-methylpiperazin-1-yl)ethyl)quinazoline-2,4-diamine] | 3.8 | 4.65 | 1.15 | – | – | –
28 | CCc1ccc(CCNc2nc(NCCO)c3ccccc3n2)cc1 [Compound 89, 2-((2-((4-ethylphenethyl)amino)quinazolin-4-yl)amino)ethan-1-ol] | 2.73 | 6.1 | 3.48 | – | – | –
29 | CN1CCN(CCNc2nc(NCCc3ccco3)nc3ccccc23)CC1 [Compound 148, N^2-(2-(furan-2-yl)ethyl)-N^4-(2-(4-methylpiperazin-1-yl)ethyl)quinazoline-2,4-diamine] | 7.77 | > 30 | – | – | – | –
30 | CN1CCN(CCNc2nc(NCCc3ccc(O)cc3)nc3ccccc23)CC1 [Compound 132, N^2-(4-hydroxyphenethyl)-N^4-(2-(4-methylpiperazin-1-yl)ethyl)quinazoline-2,4-diamine] | 4.71 | 8.03 | – | – | – | –
31 | COc1cccc(CNc2nc(NCCO)c3ccccc3n2)c1 [Compound 33, 2-((2-((3-methoxybenzyl)amino)quinazolin-4-yl)amino)ethan-1-ol] | 8.95 | 21 | – | – | – | –
32 | OCCNc1nc(-c2ccco2)nc2ccccc12 [Compound 22, 2-((2-(furan-2-yl)quinazolin-4-yl)amino)ethan-1-ol] | > 30 | > 30 | – | – | – | –
33 | OCCNc1nc(-c2ccsc2)nc2ccccc12 [Compound 19, 2-((2-(thiophen-3-yl)quinazolin-4-yl)amino)ethan-1-ol] | > 30 | > 30 | – | – | – | –
34 | OCCNc1nc(-c2cc[nH]c2)nc2ccccc12 [Compound 21, 2-((2-(1H-pyrrol-3-yl)quinazolin-4-yl)amino)ethan-1-ol] | > 30 | > 30 | – | – | – | –
35 | OCCNc1nc(-c2ccc[nH]2)nc2ccccc12 [Compound 20, 2-((2-(1H-pyrrol-2-yl)quinazolin-4-yl)amino)ethan-1-ol] | > 30 | > 30 | – | – | – | –
36 | CN1CCN(CCNc2nc(NCCc3ccc(F)cc3)nc3ccccc23)CC1 [Compound 59, N^2-(4-fluorophenethyl)-N^4-(2-(4-methylpiperazin-1-yl)ethyl)quinazoline-2,4-diamine] | 5.54 | 3.7 | – | – | – | –
